This is an account of results in patent publication US8354569B2, “Plant acyltransferases specific for long-chained, multiply unsaturated fatty acids” (University of Bristol, priority 2003, dated 2013).

The test system of assay [1] is LPAAT. Put plainly: LPAAT acyl-CoA substrate specificity, Mortierella microsomal membranes. The class given is biochemical, Mortierella alpina. Particulars: Mortierella LPAAT; 20 nmol acyl-CoA, sn-1-oleoyl-lysophosphatidic acid, DTNB assay. The procedure: (§1) Mortierella cultures were harvested after 5 days and placed on ice. All further procedures were carried out at 4° C. The mycelium was suspended in 0.1 M sodium phosphate buffer (pH 7.2), comprising 0.33 M sucrose, 0.1% BSA (free from fatty acids), 1000 units of catalase/ml and 1 mM Pefabloc. The following steps were carried out as described under “preparations of microsomal membranes from cotyledons of maturing seeds of sunflower and linseed”.
(§2) The specificity of the LPAAT was studied in order to verify whether the enzyme has a preference for certain acyl-CoAs, in particular to determine whether the LPAAT from oil seed plants converts LCPUFA-CoAs. […] The assay comprised sn-1-oleoyl-lysophosphatidic acid (30 nmol), DTNB (50 nmol) and 20 nmol of one of the following acyl-CoAs: palmitoyl-CoA (16:0-CoA), stearoyl-CoA (18:0-CoA), oleoyl-CoA (18:1-CoA), linoleoyl-CoA (18:2-CoA), dihomo-gamma-linolenyl-CoA (20:3-CoA) or arachidonyl-CoA (20:4-CoA) in 1 ml of 0.1 M phosphate buffer, pH 7.2. […] Microsomal membranes (equivalent to 10 μg of protein in the case of Mortierella and 40 μg of protein in the case of sunflower and linseed) were added to the reaction mixture in order to start the reaction.

Assay [2] deals with LPAAT. Put plainly: LPAAT acyl-CoA substrate specificity, linseed microsomal membranes. Type of assay: biochemical. The settings on record: 20 nmol acyl-CoA, sn-1-oleoyl-lysophosphatidic acid, DTNB assay. The protocol: (§3) All the procedures were carried out at 4° C. The cotyledons of maturing sunflower seeds and linseed were harvested approximately 10 days after anthesis and suspended in 0.1 M sodium phosphate buffer (pH 7.2), comprising 0.33 M sucrose and 0.1% BSA (free from fatty acids). After comminution in a glass homogenizer, the homogenate was centrifuged for 30 minutes at 20 000×g. The supernatant was filtered through one layer of Miracloth and centrifuged for 90 minutes in an ultracentrifuge at 100 000×g. The pelleted microsomal membranes were washed with 0.1 M sodium phosphate buffer (pH 7.2) and resuspended in a small volume of buffer, using a glass homogenizer. The microsomal membrane preparations were either immediately processed or stored at −80° C.
as §2

For assay [3], the system named is GPAT. Put plainly: GPAT acyl-CoA substrate specificity, sunflower microsomal membranes. Type of assay: biochemical. The settings on record: 0.2 mM acyl-CoA, 5 mM [14C] G3P, 5 minutes. The protocol: as §3
(§4) The specificity of the GPAT was studied to verify whether the enzyme has a preference for certain acyl-CoAs, in particular to determine whether the GPAT from oil seed plants converts LCPUFA-CoAs. Microsomal membranes were incubated with 0.5 mM (Mortierella) or 0.2 mM (sunflower and linseed) of one of the following acyl-CoAs: myristoyl-CoA (14:0-CoA), palmitoyl-CoA (16:0-CoA), palmitoleoyl-CoA (16:1-CoA), stearoyl-CoA (18:0-CoA), oleoyl-CoA (18:1-CoA), linoleoyl-CoA (18:2-CoA), dihomo-gamma-linolenoyl-CoA (20:3-CoA) or arachidonyl-CoA (20:4-CoA) and 5 mM [^14C] G3P. Microsomal membranes (equivalent to 50 μg of protein in the case of sunflower and Mortierella and 150 μg of protein in the case of linseed) were added to the reaction mixture in order to start the reaction. After incubation for 5 minutes, the lipids were extracted by the method of Bligh & Dyer, and the radioactivity incorporated in complex lipids was determined.

Assay [4] deals with LPCAT. Description: LPCAT acyl-CoA substrate specificity, sunflower microsomal membranes. Type of assay: biochemical. The settings on record: 20 nmol acyl-CoA, sn-1-palmitolysophosphatidylcholine, DTNB assay. The procedure:
as §3
(§5) LPCAT activity was determined in a continuous spectraphotometric assay in which 5,5-dithiobis-2-nitrobenzoate (DTNB) was used, and the change in absorption at 409 nm and 25° C. was monitored. The assay comprised sn-1-palmitolysophosphatidylcholine (30 nmol) as acyl acceptor, DTNB (50 nmol) and 20 nmol of one of the following acyl-CoAs: myristoyl-CoA (14:0-CoA), palmitoyl-CoA (16:0-CoA), palmitoleoyl-CoA (16:1-CoA), stearoyl-CoA (18:0-CoA), oleoyl-CoA (18:1-CoA), linoleoyl-CoA (18:2-CoA), dihomo-gamma-linolenyl-CoA (20:3-CoA) or arachidonyl-CoA (20:4-CoA) in 1 ml of 0.1 M phosphate buffer, pH 7.2. The reaction was started by addition of microsomal membrane preparation. The amount of microsomal membrane preparation added was 5 μg (Mortierella and sunflower) or 30 μg (linseed).

In assay [5] the test system is GPAT. Put plainly: GPAT acyl-CoA substrate specificity, linseed microsomal membranes. The class given is biochemical. Particulars: 0.2 mM acyl-CoA, 5 mM [14C] G3P, 5 minutes. The protocol: as §3, §4
Assay [6] deals with LPCAT. Description: LPCAT acyl-CoA substrate specificity, Mortierella microsomal membranes. Type of assay: biochemical, Mortierella alpina. The settings on record: Mortierella LPCAT; 20 nmol acyl-CoA, sn-1-palmitolysophosphatidylcholine, DTNB assay. The procedure: as §1, §5
Assay [7] has as its system LPAAT. Description: LPAAT acyl-CoA substrate specificity, sunflower microsomal membranes. Type of assay: biochemical. The settings on record: 20 nmol acyl-CoA, sn-1-oleoyl-lysophosphatidic acid, DTNB assay. The procedure: as §3, §2
In assay [8] the test system is LPCAT. Description: LPCAT acyl-CoA substrate specificity, linseed microsomal membranes. The class given is biochemical. The settings on record: for Percentage incorporation in comparison with the incorporation of oleic acid: 20 nmol acyl-CoA, sn-1-palmitolysophosphatidylcholine, DTNB assay. The protocol:
as §3, §5

Assay [9] concerns GPAT. Put plainly: GPAT acyl-CoA substrate specificity, Mortierella microsomal membranes. The settings on record: Mortierella GPAT; 0.5 mM acyl-CoA, 5 mM [14C] G3P, 5 minutes. The class given is biochemical, Mortierella alpina. The procedure: as §1, §4

With `CCCCCCCCCCCCCC(=O)SCCNC(=O)CCNC(=O)[C@H](O)C(C)(C)COP(=O)(O)OP(=O)(O)OC[C@H]1O[C@@H](n2cnc3c(N)ncnc32)[C@H](O)[C@@H]1OP(=O)(O)O` [Myristoyl-CoA, myristoyl-CoA], the “Percentage incorporation in comparison with the incorporation of oleic acid” value (shortened to “Percentage incorporation in comparison”) is reported as 55% in the assay with LPAAT [1]; 30% with LPAAT [2]; 57% with GPAT [3]; 1% with LPCAT [4]; 100% with GPAT [5]; 0% in the assay with LPCAT [6]. Also, the “Percentage incorporation in comparison” value in the assay with LPAAT [7] came to 16%; in the assay on LPCAT [8], 0%.

Take `CCCCC/C=C\C/C=C\C/C=C\C/C=C\CCCC(=O)SCCNC(=O)CCNC(=O)[C@H](O)C(C)(C)COP(=O)(O)OP(=O)(O)OC[C@H]1O[C@@H](n2cnc3c(N)ncnc32)[C@H](O)[C@@H]1OP(=O)(O)O` [Arachidonoyl-CoA, arachidonyl-CoA]: the “Percentage incorporation in comparison” value with LPAAT [1] was 65%; in the assay with LPAAT [2] it was 19%; with GPAT [3], 23%; in the assay with LPCAT [4], 4%; in the assay on GPAT [5] it was 5%; in the assay on LPCAT [6], 90%. Also, the “Percentage incorporation in comparison” value with LPAAT [7] came to 18%; in the assay on LPCAT [8] it was 0%; in the assay with GPAT [9] it was 75%. For the same compound, the “LPCAT activity (in words)” value in the assay on LPCAT [8] is on record as “no LPCAT activity was detected”.

As to `CCCCCCCCCCCCCCCC(=O)SCCNC(=O)CCNC(=O)[C@H](O)C(C)(C)COP(=O)(O)OP(=O)(O)OC[C@H]1O[C@@H](n2cnc3c(N)ncnc32)[C@H](O)[C@@H]1OP(=O)(O)O` [Palmitoyl-CoA, palmitoyl-CoA], the “Percentage incorporation in comparison” value in the assay with LPAAT [1] amounted to 40%; with LPAAT [2], 25%; with GPAT [3], 64%; in the assay with LPCAT [4] (listed as SSA Palmitoyl-CoA) it was 13%; with GPAT [5], 90%; with LPCAT [6], 25%. The figures for the “Percentage incorporation in comparison” value in the assay with LPAAT [7], in the assay with LPCAT [8] and with GPAT [9] were 15%, 5% and 66%, respectively.

Regarding `CCCCC/C=C\C/C=C\CCCCCCCC(=O)SCCNC(=O)CCNC(=O)[C@H](O)C(C)(C)COP(=O)(O)OP(=O)(O)OC[C@H]1O[C@@H](n2cnc3c(N)ncnc32)[C@H](O)[C@@H]1OP(=O)(O)O` [Linoleoyl-CoA, linoleoyl-CoA], the “Percentage incorporation in comparison” value is recorded as 90% with LPAAT [1]; 120% with LPAAT [2]; 85% in the assay with GPAT [3]; 120% in the assay with LPCAT [4]; 90% in the assay with GPAT [5]; 40% in the assay on LPCAT [6]. The “Percentage incorporation in comparison” value with LPAAT [7] is given as 250%; with LPCAT [8], 100%; in the assay on GPAT [9], 90%. Moreover, the “LPCAT activity (in words)” value in the assay with LPCAT [8] was “converted equally efficiently”.

Turning to `CCCCCCCCCCCCCCCCCC(=O)SCCNC(=O)CCNC(=O)[C@H](O)C(C)(C)COP(=O)(O)OP(=O)(O)OC[C@H]1O[C@@H](n2cnc3c(N)ncnc32)[C@H](O)[C@@H]1OP(=O)(O)O` [Stearoyl-CoA, stearoyl-CoA], the “Percentage incorporation in comparison” value amounted to 36% in the assay on LPAAT [1]; 30% in the assay on LPAAT [2]; 40% in the assay on GPAT [3]; 18% in the assay on LPCAT [4]; 65% with GPAT [5]; 10% in the assay on LPCAT [6]. Also, the “Percentage incorporation in comparison” value in the assay on LPAAT [7] was found to be 14%; in the assay with LPCAT [8], 15%; with GPAT [9], 50%.

For `CCCCCC/C=C\CCCCCCCC(=O)SCCNC(=O)CCNC(=O)[C@H](O)C(C)(C)COP(=O)(O)OP(=O)(O)OC[C@H]1O[C@@H](n2cnc3c(N)ncnc32)[C@H](O)[C@@H]1OP(=O)(O)O` [Palmitololeoyl-CoA, palmitoleoyl-CoA], the “Percentage incorporation in comparison” value in the assay with LPAAT [1] turned out to be 70%; in the assay on LPAAT [2], 140%; with LPCAT [4], 90%; in the assay with LPCAT [6] it was 60%; in the assay on LPAAT [7], 140%; with LPCAT [8] it was 180%.

For `CCCCC/C=C\C/C=C\C/C=C\CCCCCCC(=O)SCCNC(=O)CCNC(=O)[C@H](O)C(C)(C)COP(=O)(O)OP(=O)(O)OC[C@H]1O[C@@H](n2cnc3c(N)ncnc32)[C@H](O)[C@@H]1OP(=O)(O)O` [20:3-CoA, dihomo-gamma-linolenoyl-CoA], the “Percentage incorporation in comparison” value in the assay on LPAAT [1] is 65%; in the assay on GPAT [3] it was 55%; in the assay with LPCAT [6], 85%; with LPCAT [8] it was 0%; with GPAT [9], 80%. Besides, the “LPCAT activity (in words)” value in the assay with LPCAT [8] was “no LPCAT activity was detected”.
